Earlier results as cited in patent US20140303119A1, “METHODS, APPARATUS, AND COMPOUNDS FOR THE TREATMENT OF CENTRAL RETINAL VEIN OCCLUSION AND OTHER CONDITIONS” (DiLorenzo Biomedical, LLC, priority 2013, published 2014).

Legend:
[1] = system: central retinal vein occlusion
[2] = system: thrombosis of the central retinal vein; settings: given intravenously, small randomized clinical study
patients with CRVO = settings: 96 patients with CRVO
retinal vein occlusion = settings: patients with retinal vein occlusion, troxerutin versus placebo
CRVO = settings: review statement, evidence limited (level B, III)

For Streptokinase, which “patients showing deterioration in vision” value ([1]; treated group (continuous infusion followed by warfarin), control group 12 of 20) is on record?
Its value is 5 of 20.

And the “patients experiencing massive vitreous hemorrhage with persistence of blindness in those eyes” value ([1]; treated group, within 72 hours)?
Its value is 3 of 20.

For `Clc1ccccc1CN1CCc2sccc2C1` [Ticlodipine], which “incidence of very serious hematological toxicity, including neutropenia, thrombocytopenia, and aplastic anemia” value (patients, requires regular monitoring) is on record?
Its value is 0.5%-3%.

Which “progression to neovascularization versus placebo” value [2] does the source give for `CCCCC[C@H](O)/C=C/[C@@H]1[C@H]2C/C(=C/CCCC(=O)O)O[C@H]2C[C@H]1O` [Prostacyclin] here?
Its value is “no significant difference”.

What about the “visual acuity versus placebo” value [2] of the same molecule?
The value was “no significant difference”.

Which fatal stroke (patients with CRVO) does the source give for “Tissue plasminogen activator (tPA): Tissue plasminogen activator, fibrinolytic therapy” here?
The fatal stroke was 1 patient.

And the severe intraocular bleeding (patients with CRVO)?
Its severe intraocular bleeding is 3 patients.

With `COC(=O)[C@H](c1ccccc1Cl)N1CCc2sccc2C1` [Clopidrogel, (+)-(S)-methyl 2-(2-chlorophenyl)-2-(6,7-dihydrothieno[3,2-c]pyridin-5(4H)-yl)acetate] as the molecule, how does the “incidence of blood disorders compared with ticlodipine” value (no need for regular monitoring) read?
Its value is “reduced incidence of blood disorders”.

For `C[C@@H]1O[C@@H](OC[C@H]2O[C@@H](Oc3c(-c4ccc(OCCO)c(OCCO)c4)oc4cc(OCCO)cc(O)c4c3=O)[C@H](O)[C@@H](O)[C@@H]2O)[C@H](O)[C@H](O)[C@H]1O` [troxerutin], which “macular edema versus placebo” value (retinal vein occlusion) is on record?
The value was “improvement”.

What about the “retinal circulation time versus placebo” value (retinal vein occlusion) of the same molecule?
The value was “improvement”.

And the “visual acuity versus placebo” value (retinal vein occlusion)?
Its value is “improvement”.

And the “outcome of CRVO” value (CRVO)?
Its value is “trend for improvement”.
